Results reported in US6815440B2, “Cyclic and heterocyclic N-substituted α-iminohydroxamic and -carboxylic acids” (Aventis Pharma Deutschland GmbH, priority 1995, dated 2004).
Like-named read-outs stand apart in the source and are kept apart here.

Key:
[1] = target: T1, catalytic domain of human stromelysine (Homo sapiens, UniProt P08254); assay: Enzyme inhibition, catalytic domain of human stromelysine (fluorogenic substrate); assay type: biochemical; conditions: read-out: Stromelysine IC 50
T1 construct: enzymatic activity of the catalytic domains of human stomelysine and of neutrophil collagenase; made in house
T1 sequence (P08254 100-272 limits assumed): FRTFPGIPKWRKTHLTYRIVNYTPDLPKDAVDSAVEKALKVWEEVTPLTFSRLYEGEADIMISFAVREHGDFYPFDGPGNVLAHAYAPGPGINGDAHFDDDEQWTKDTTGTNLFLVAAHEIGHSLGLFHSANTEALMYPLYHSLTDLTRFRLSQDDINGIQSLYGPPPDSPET
Experimental: (§1) Preparation and determination of the enzymatic activity of the catalytic domains of human stomelysine and of neutrophil collagenase.
(§2) The two enzymes were prepared according to Ye et al., (Biochemistry 31 (1992) 11231-5). To measure the enzyme activity or enzyme inhibitor action, 70 μl of buffer solution and 10 μl of enzyme solution are incubated for 15 minutes with 10 μl of a 10% strength (v/v) aqueous dimethyl sulfoxide solution, which optionally contains the enzyme inhibitor. After addition of 10 μl of a 10% strength (v/v) aqueous dimethyl sulfoxide solution which contains 1 mmol/l of the substrate, the enzyme reaction is monitored by fluorescence spectroscopy (328 nm (ex)/393 nm(em)). The enzyme activity is shown as extinction increase/minute. […] The buffer solution contains 0.05% of Brij (Sigma, Deisenhofen, Germany) and also 0.1 mol/l of tris/HCl, 0.1 mol/l of NaCl, 0.01 mol/l of CaCl2 (pH=7.5) for the determination of the hydroxamic acids up to and including Example 33, or, for the determination of the carboxylic acids from Example 34, 0.1 mol/l of piperazine-N,N′-bis[2-ethanesulfonic acid] pH=6.5.
(§3) The enzyme solution contains 5 μg/ml of one of the enzyme domains prepared according to Ye et al. The substrate solution contains 1 mmol/l of the fluorogenic substrate (7-methoxycoumarin-4-yl)acetyl-Pro-Leu-Gly-Leu-3-(2′,4′-dinitrophenyl)-L-2,3-diaminopropionyl-Ala-Arg-NH2 (Bachem, Heidelberg, Germany).

[2] = target: T2, catalytic domain of neutrophil collagenase (Homo sapiens, UniProt P22894); assay: Enzyme inhibition, catalytic domain of neutrophil collagenase (fluorogenic substrate); assay type: biochemical; conditions: read-out: Neutrophil collagenase IC 50
T2 construct: enzymatic activity of the catalytic domains of human stomelysine and of neutrophil collagenase; made in house
T2 sequence (P22894 100-262 limits assumed): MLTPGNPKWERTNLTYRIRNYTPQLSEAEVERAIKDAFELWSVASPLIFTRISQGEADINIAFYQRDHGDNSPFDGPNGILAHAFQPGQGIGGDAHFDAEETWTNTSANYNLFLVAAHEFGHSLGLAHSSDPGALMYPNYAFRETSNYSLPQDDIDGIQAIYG
Experimental: as §1, §2, §3

[3] = hydroxamic acids up to and including Example 33, tris/HCl buffer pH=7.5
[4] = carboxylic acids from Example 34, piperazine-N,N'-bis[2-ethanesulfonic acid] buffer pH=6.5

Row | SMILES | IC50 [1, 3] [nM] | IC50 [2, 3] [nM] | IC50 [1, 4] [nM] | IC50 [2, 4] [nM] | melting point
1 | O=C(NO)C1Cc2ccccc2CN1S(=O)(=O)CCc1ccccc1 (centres unmarked) [Example 17] | 100 |  |  |  | 
2 | COc1ccc(S(=O)(=O)Oc2ccc3c(c2)CN(S(=O)(=O)c2ccc(OC)cc2)[C@@H](C(=O)NO)C3)cc1 [Example 22] | 30 | 8 |  |  | 
3 | O=C(c1ccccc1)c1ccc(S(=O)(=O)N2Cc3ccccc3C[C@@H]2C(=O)O)cc1 [Example 45] |  |  | 3000 | 300 | 
4 | O=C(NO)[C@H]1Cc2ccccc2CN1S(=O)(=O)c1ccc(-c2ccc(Cl)cc2)cc1 [Example 3] | 30 | 2 |  |  | 
5 | COc1ccc(S(=O)(=O)N2Cc3c(cc(OC)c(OC)c3OC)CC2C(=O)NO)cc1 (centres unmarked) [Example 25, 2-(4-Methoxybenzenesulfonyl)-6,7,8-trimethoxy-1,2,3,4-tetrahydroisoquinoline-3-hydroxamic acid] | 400 | 300 |  |  | 
6 | O=C(O)[C@H]1Cc2ccccc2CN1S(=O)(=O)c1ccc(Oc2ccc(Cl)cc2)cc1 [Example 42, R-2-[4-(4-chlorophenoxy)benzenesulfonyl]-1,2,3,4-tetrahydroisoquinoline-3-carboxylic acid] |  |  | 500 | 20 | 167 to 168 °C
7 | O=C(NO)C1Cc2ccccc2CN1S(=O)(=O)c1ccc(C(O)c2ccccc2)cc1 (centres unmarked) [Example 19] | 2000 | 300 |  |  | 
8 | CN(C)c1cccc2c(S(=O)(=O)N3Cc4ccccc4C[C@@H]3C(=O)NO)cccc12 [Example 12] | 400 | 200 |  |  | 
9 | O=C(O)[C@H]1Cc2cc([N+](=O)[O-])ccc2CN1S(=O)(=O)c1ccc(-c2ccc(Cl)cc2)cc1 [Example 51] |  |  | 500 | 20 | 
10 | O=C(O)[C@H]1Cc2cc([N+](=O)[O-])ccc2CN1S(=O)(=O)c1ccc(-c2ccc(F)cc2)cc1 [Example 53] |  |  | 500 | 20 | 
11 | O=C(NO)[C@H]1Cc2c([nH]c3ccccc23)CN1S(=O)(=O)c1ccc(N2CCOCC2)cc1 [Example 33, R-2-(4-morpholinobenzenesulfonyl)-1,2,3,4-tetrahydro-9H-pyrido(3,4-b)-indole-3-hydroxamic acid] | 300 | 70 |  |  | 125 °C (dec.)
12 | O=C(NO)C1Cc2ccccc2CN1S(=O)(=O)N1CCOCC1 (centres unmarked) [Example 26, 2-(Morpholinosulfonyl)-1,2,3,4-tetrahydroisoquinoline-3-hydroxamic acid] | 6000 | 300 |  |  | 
13 | COc1ccc(S(=O)(=O)N2Cc3cc([N+](=O)[O-])ccc3CC2C(=O)NO)cc1 (centres unmarked) [Example 23] | 80 | 8 |  |  | 
14 | O=C(O)[C@H]1Cc2ccccc2CN1S(=O)(=O)c1ccc(Sc2ccccc2)cc1 [Example 43] |  |  | 20000 | 200 | 
15 | O=C(O)[C@H]1Cc2ccc([N+](=O)[O-])cc2CN1S(=O)(=O)c1ccc(-c2ccc(Cl)cc2)cc1 [Example 50] |  |  | 600 | 30 | 
16 | COc1ccc(S(=O)(=O)N2CCc3cc4c(cc3C2C(=O)NO)CCC4)cc1 (centres unmarked) [Example 27] | 30 | 4 |  |  | 
17 | CCOC(=O)Nc1ccc(S(=O)(=O)N2Cc3ccccc3CC2C(=O)NO)cc1 (centres unmarked) [Example 6] | 500 | 30 |  |  | 
18 | O=C(O)[C@H]1Cc2cc3c(cc2CN1S(=O)(=O)c1ccc(Oc2ccccc2)cc1)OCO3 [Example 54] |  |  |  |  | 226 to 228 °C
19 | O=C(O)[C@H]1Cc2c([nH]c3ccccc23)CN1S(=O)(=O)c1ccc(Oc2ccccc2)cc1 [Example 57] |  |  | 2000 | 100 | 115 °C

Row | SMILES | IC50 [1, 3] [nM] | IC50 [2, 3] [nM] | IC50 [1, 4] [nM] | IC50 [2, 4] [nM] | melting point
20 | COc1ccc(S(=O)(=O)N2Cc3[nH]c4ccccc4c3C[C@@H]2C(=O)NO)cc1 [Example 31, R-2-(4-methoxybenzenesulfonyl)-1,2,3,4-tetrahydro-9H-pyrido-(3,4-b)-indole-3-hydroxamic acid] | 20 | 3 |  |  | 
21 | COc1ccc(CC(=O)Nc2cccc(S(=O)(=O)N3Cc4ccccc4CC3C(=O)NO)c2)cc1 (centres unmarked) [Example 8] | 3000 | 200 |  |  | 
22 | CC(=O)Nc1ccc(S(=O)(=O)N2Cc3ccccc3CC2C(=O)NO)cc1 (centres unmarked) [Example 4] | 700 | 100 |  |  | 
23 | O=C(NO)[C@H]1Cc2ccccc2CN1S(=O)(=O)C1=CC2=CC=CCC2C=C1 (some centres unmarked) [Example 11] | 400 | 70 |  |  | 
24 | COc1ccc(S(=O)(=O)N2c3ccccc3CC2C(=O)NO)cc1 (centres unmarked) [Example 28, 1-(4-Methoxybenzenesulfonyl)indoline-2-hydroxamic acid] | 2000 | 700 |  |  | 142 °C
25 | CN(C)c1ccc(-c2ccc(S(=O)(=O)N3Cc4ccccc4C[C@@H]3C(=O)O)cc2)cc1.Cl [Example 39] |  |  | 100 | 1 | 122 to 135 °C
26 | COc1ccc(S(=O)(=O)N2Cc3cc4c(cc3CC2C(=O)NO)OCO4)cc1 (centres unmarked) [Example 24, 2-(4-Methoxybenzenesulfonyl)-6,7-methylenedioxy-1,2,3,4-tetrahydroisoquinoline-3-hydroxamic acid] | 60 | 20 |  |  | 166 °C
27 | O=C(O)[C@H]1Cc2ccccc2CN1S(=O)(=O)c1ccc(OCc2ccc(F)cc2)cc1 [Example 44] |  |  | 200 | 30 | 
28 | O=C(O)[C@H]1Cc2ccccc2CN1S(=O)(=O)c1ccc(Oc2ccccc2)cc1 [41 (13b), R-2-(4-phenoxybenzenesulfonyl)-1,2,3,4-tetrahydroisoquinoline-3-carboxylic acid] |  |  | 200 | 9 | 147 °C
29 | O=C(NO)[C@H]1Cc2c([nH]c3ccccc23)CN1S(=O)(=O)c1ccc(Oc2ccccc2)cc1 [Example 32, R-2-(4-phenoxybenzenesulfonyl)-1,2,3,4-tetrahydro-9H-pyrido(3,4-b)-indole-3-hydroxamic acid] | 60 |  |  |  | 110 to 111 °C
30 | O=C(O)[C@H]1Cc2ccccc2CN1S(=O)(=O)c1ccc2oc3ccccc3c2c1 [Example 46] |  |  | 3000 | 300 | 218 to 219 °C
31 | O=C(O)[C@@H]1Cc2ccccc2CN1S(=O)(=O)c1ccc(-c2ccc(Cl)cc2)cc1 [Example 36] |  |  |  | 3000 | 
32 | O=C(O)[C@H]1Cc2ccc([N+](=O)[O-])cc2CN1S(=O)(=O)c1ccc(-c2ccc(F)cc2)cc1 [Example 52] |  |  | 1000 | 40 | 
33 | CCOC(=O)Nc1cccc(S(=O)(=O)N2Cc3ccccc3CC2C(=O)NO)c1 (centres unmarked) [Example 5] | 6000 |  |  |  | 
34 | O=C(O)[C@H]1Cc2ccccc2CN1S(=O)(=O)c1ccc(-c2ccccc2)cc1 [Example 34] |  |  | 500 | 10 | 205 °C
35 | O=C(NO)[C@H]1Cc2ccccc2CN1S(=O)(=O)c1ccc2oc3ccccc3c2c1 [Example 15] | 100 | 10 |  |  | 
36 | O=C(O)[C@H]1Cc2ccccc2CN1S(=O)(=O)c1ccc(-c2ccc(Cl)cc2)cc1 [Example 35] |  |  | 100 | 5 | 207 to 209 °C
37 | O=C(NO)C1Cc2ccccc2CN1S(=O)(=O)c1ccccc1 (centres unmarked) [Example 1] | 300 |  |  |  | 
38 | O=C(O)[C@H]1Cc2ccccc2CN1S(=O)(=O)c1ccc(-c2nc3ccccc3o2)cc1 [Example 47] |  |  |  |  | 211 to 213 °C
